Where a SMILES comes first, the peptide text is derived from it. Bridges are numbered along the chain shown (N, C = ends). [ ]: non-standard residue; d: D form. The star is where a group is joined. hPhe(3-Cl-4-CF3) = N[C@@H](CCc1ccc(C(F)(F)F)c(Cl)c1)C(=O)O; NPrPhe(4-CF3) = CCCN[C@@H](Cc1ccc(C(F)(F)F)cc1)C(=O)O; Abu(4,4,4-F3) = N[C@@H](CC(F)(F)F)C(=O)O; NMeGly(cPent) = CN[C@H](C(=O)O)C1CCCC1; Gly(cPent) = N[C@H](C(=O)O)C1CCCC1; NMeD = CN[C@@H](CC(=O)O)C(=O)O; NMeL = CN[C@@H](CC(C)C)C(=O)O; Morpholide = C1CN(*)CCO1; Ac5c = NC1(C(=O)O)CCCC1; NEtG = CCNCC(=O)O; Sar = CNCC(=O)O
Columns and labels:
[1] = target: GDP-bound HRAS wild-type protein (Homo sapiens, UniProt P01112); assay: Binding to HRAS by surface plasmon resonance (SPR), Single Cycle Kinetics
Chain of GDP-bound HRAS wild-type protein (P01112 whole entry): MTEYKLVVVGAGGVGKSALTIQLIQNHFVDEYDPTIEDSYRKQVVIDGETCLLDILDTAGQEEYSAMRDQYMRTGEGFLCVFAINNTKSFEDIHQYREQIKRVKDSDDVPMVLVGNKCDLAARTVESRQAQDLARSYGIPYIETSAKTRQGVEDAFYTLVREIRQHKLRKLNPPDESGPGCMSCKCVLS

[2] = target: GDP-bound NRAS wild-type protein (Homo sapiens, UniProt P01111); assay: Binding to NRAS by surface plasmon resonance (SPR), Single Cycle Kinetics
Chain of GDP-bound NRAS wild-type protein (P01111 whole entry): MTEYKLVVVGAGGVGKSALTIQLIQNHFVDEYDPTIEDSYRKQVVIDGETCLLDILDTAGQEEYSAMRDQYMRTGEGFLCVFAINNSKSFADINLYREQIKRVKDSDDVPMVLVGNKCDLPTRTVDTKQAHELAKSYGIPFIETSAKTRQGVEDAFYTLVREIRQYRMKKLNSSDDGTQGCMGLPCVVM

[3] = KD ratio, GDP-bound HRAS wild-type vs GDP-bound KRAS wild-type, SPR
[4] = KD ratio, GDP-bound NRAS wild-type vs GDP-bound KRAS wild-type, SPR

## CCO[C@@H]1C[C@H]2C(=O)NC3(CCC3)C(=O)N(C)[C@@H](C3CCCC3)C(=O)N(CC)[C@H](C(=O)N3CCOCC3)CC(=O)N(C)[C@@H](CCC(Cl)Cl)C(=O)N[C@@H]([C@@H](C)CC)C(=O)N(C)CC(=O)N(C)[C@H]3CCCCCN(C3=O)[C@@H](Cc3ccc(C(F)(F)F)cc3)C(=O)N(C)CC(=O)N[C@@H](CCc3cc(F)c(C(F)(F)F)c(F)c3)C(=O)N2C1 [PP0949]
[1]; [3]
  HRAS/KRAS (ratio of KD value with respect to HRAS to KD value with respect to KRAS): A (a compound having 10 or more and less than 20 is denoted as A)
[2]; [4]
  NRAS/KRAS (ratio of KD value with respect to NRAS to KD value with respect to KRAS): A (a compound having 10 or more and less than 20 is denoted as A)

## CC[C@H](C)[C@@H]1NC(=O)[C@H](CC(C)C)N(C)C(=O)C[C@@H](C(=O)N2CCCCC2)N(C)C(=O)[C@H](C2CCCC2)N(C)C(=O)C2(CCCC2)NC(=O)[C@@H]2CCCN2C(=O)[C@H](CCc2cc(F)c(C(F)(F)F)c(F)c2)NC(=O)CN(C)C(=O)[C@H](Cc2ccc(C(F)(F)F)cc2)N2CCCCC[C@@H](C2=O)N(C)C(=O)CN(C)C1=O [PP0510]
[1]; SPR
  HRAS/KRAS (ratio of KD value with respect to GDP-bound HRAS wild-type protein to KD value with respect to KRAS): B (a compound having 3 or more and less than 10 is denoted as B)
[2]; SPR
  NRAS/KRAS (ratio of KD value with respect to GDP-bound NRAS wild-type protein to KD value with respect to KRAS): B (a compound having 3 or more and less than 10 is denoted as B)

## CCO[C@@H]1C[C@H]2C(=O)NC3(CC(F)(F)C3)C(=O)N(C)[C@@H](C3CCCC3)C(=O)N(C)[C@H](C(=O)N(C)C)CC(=O)N(C)[C@@H](CC3CCC3)C(=O)N[C@@H]([C@@H](C)CC)C(=O)N(C)CC(=O)N(C)[C@H]3C/C=C\CCN(C3=O)[C@@H](Cc3ccc(C(F)(F)F)cc3)C(=O)N(C)CC(=O)N[C@@H](CCc3cc(F)c(C(F)(F)F)c(F)c3)C(=O)N2C1 [PP1742]
[1]; [3]
  HRAS/KRAS (ratio of KD value for HRAS to KD value for KRAS): A (a compound having 10 or more and less than 20 is denoted as A)
[2]; [4]
  NRAS/KRAS (ratio of KD value for NRAS to KD value for KRAS): A (a compound having 10 or more and less than 20 is denoted as A)

## CCO[C@@H]1C[C@H]2C(=O)NC3(CC(C)(C)C3)C(=O)N(C)[C@@H](C3CCCC3)C(=O)N(C)[C@H](C(=O)N(C)CC)CC(=O)N(C)[C@H]3CCCC/C=C/c4ccc(cc4)C[C@@H](C(=O)N(C)CC(=O)N[C@@H](CCc4ccc(Cl)c(Cl)c4)C(=O)N2C1)N1CC/C=C\C[C@@H](C1=O)N(C)C(=O)CN(C)C(=O)[C@H]([C@@H](C)CC)NC3=O [PP2592]
[1]; class symbols
  HRAS/KRAS (ratio of KD value with respect to GDP-bound HRAS wild-type protein to KD value with respect to KRAS): A (a compound having 10 or more and less than 20 is denoted as A)
[2]; class symbols
  NRAS/KRAS (ratio of KD value with respect to GDP-bound NRAS wild-type protein to KD value with respect to KRAS): A (a compound having 10 or more and less than 20 is denoted as A)

## CC[C@H](C)[C@@H]1NC(=O)[C@H](CC(C)C)N(C)C(=O)C[C@@H](C(=O)N2CCOCC2)N(C)C(=O)[C@H](C2CCCC2)N(C)C(=O)C2(COC2)NC(=O)[C@@H]2CCCN2C(=O)[C@H](CCc2cc(F)c(C(F)(F)F)c(F)c2)NC(=O)CN(C)C(=O)[C@H](Cc2ccc(C(F)(F)F)cc2)N2CCCC[C@@H](C2=O)N(C)C(=O)CN(C)C1=O [PP0563]
[1]; SPR
  HRAS/KRAS (ratio of KD value with respect to GDP-bound HRAS wild-type protein to KD value with respect to KRAS): B (a compound having 3 or more and less than 10 is denoted as B)
[2]; SPR
  NRAS/KRAS (ratio of KD value with respect to GDP-bound NRAS wild-type protein to KD value with respect to KRAS): B (a compound having 3 or more and less than 10 is denoted as B)

## CCCN1C(=O)CN(C)C(=O)CN(C)C(=O)[C@H](CC(F)(F)F)NC(=O)[C@H](CC(C)C)N(C)C(=O)C[C@@H](C(=O)N2CCOCC2)N(C)C(=O)[C@H](C2CCCC2)N(C)C(=O)C2(CCCC2)NC(=O)[C@@H]2CCCN2C(=O)[C@H](CCc2ccc(C(F)(F)F)c(Cl)c2)NC(=O)CN(C)C(=O)[C@@H]1Cc1ccc(C(F)(F)F)cc1 [PP0249] ([NMeL][Abu(4,4,4-F3)][Sar][Sar][NPrPhe(4-CF3)][Sar][hPhe(3-Cl-4-CF3)]P[Ac5c][NMeGly(cPent)][NMeD]-Morpholide; lactam N-11)
[1]; SPR
  HRAS/KRAS (ratio of KD for GDP-bound HRAS wild-type to KD for KRAS): C (A compound having a KD ratio of 0.1 or more and less than 3 is denoted as C)
[2]; SPR
  NRAS/KRAS (ratio of KD for GDP-bound NRAS wild-type to KD for KRAS): B (a compound having 3 or more and less than 10 is denoted as B)

## CCCN1C(=O)CN(C)C(=O)CN(CC)C(=O)[C@H](C2CCCC2)NC(=O)[C@H](CC(C)C)N(C)C(=O)C[C@@H](C(=O)N2CCOCC2)N(C)C(=O)[C@H](C2CCCC2)N(C)C(=O)C2(CCCC2)NC(=O)[C@@H]2CCCN2C(=O)[C@H](CCc2ccc(C(F)(F)F)c(Cl)c2)NC(=O)CN(C)C(=O)[C@@H]1Cc1ccc(C(F)(F)F)cc1 [PP0293] ([NMeL][Gly(cPent)][NEtG][Sar][NPrPhe(4-CF3)][Sar][hPhe(3-Cl-4-CF3)]P[Ac5c][NMeGly(cPent)][NMeD]-Morpholide; lactam N-11)
[1]; SPR
  HRAS/KRAS (ratio of KD for GDP-bound HRAS wild-type to KD for KRAS): C (A compound having a KD ratio of 0.1 or more and less than 3 is denoted as C)
[2]; SPR
  NRAS/KRAS (ratio of KD for GDP-bound NRAS wild-type to KD for KRAS): B (a compound having 3 or more and less than 10 is denoted as B)

— patent publication US20250230193A1, “CYCLIC COMPOUND HAVING SELECTIVE KRAS INHIBITORY EFFECT ON HRAS AND NRAS” (CHUGAI SEIYAKU KABUSHIKI KAISHA, priority 2022, published 2025)
